PubChem BioAssay (NCI)
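Cells were grown in 96-well plates and exposed to each compound for 48 hours at five concentrations; endpoints were interpolated linearly between bracketing concentrations, or set to the highest concentration if not reached. GI50 marks 50% less growth. TGI denotes the concentration required for complete inhibition of growth.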

What was measured:
Test in all cases: NCI tumour cell line growth inhibition, 48 h
[1] = test system: HOP-62 NSCLC
[2] = test system: SK-MEL-5 melanoma
[3] = test system: HCC-2998 colon
[4] = test system: TK-10 renal
[5] = test system: OVCAR-5 ovarian
[6] = test system: SK-MEL-2 melanoma
[7] = test system: CCRF-CEM leukemia
[8] = test system: SF-539 CNS
[9] = test system: OVCAR-4 ovarian
[10] = test system: A498 renal

SMILES: c1ccc2c(NCCCCCCNc3cccc4ccccc34)cccc2c1
- TGI [1]: > 100 µM
- TGI [2]: > 100 µM
- TGI [3]: > 100 µM
- TGI [4]: > 100 µM
- TGI [5]: > 100 µM
- TGI [6]: > 100 µM
- TGI [7]: > 100 µM
- TGI [8]: > 100 µM
- TGI [9]: > 100 µM
- TGI [10]: > 100 µM

SMILES: O=C1C2C3C=CC(C2C(=O)N1CN1CCSCC1)C1C2C(=O)N(CN4CCSCC4)C(=O)C2C31 (stereo unspecified)
- TGI [1]: > 100 µM
- TGI [2]: > 100 µM
- TGI [3]: > 100 µM
- TGI [4]: > 100 µM
- TGI [5]: > 100 µM
- TGI [6]: > 100 µM
- GI50 [7]: 35.1 µM
- TGI [7]: > 100 µM
- TGI [8]: > 100 µM
- TGI [9]: > 100 µM
- TGI [10]: > 100 µM

SMILES: N#CC1C(=O)NC(c2ccccc2[N+](=O)[O-])c2sc3c(F)cccc3c21 (stereo unspecified)
- GI50 [1]: 2.12 µM
- TGI [1]: 28.9 µM
- GI50 [2]: 14.3 µM
- TGI [2]: 33.8 µM
- GI50 [3]: 10.1 µM
- TGI [3]: 32.7 µM
- GI50 [4]: 11.5 µM
- TGI [4]: 60.6 µM
- GI50 [5]: 0.583 µM
- TGI [5]: 4.45 µM
- GI50 [6]: 9.03 µM
- TGI [6]: 49.8 µM
- GI50 [7]: 21.6 µM
- TGI [7]: > 87.4 µM
- GI50 [8]: 22 µM
- TGI [8]: 72.8 µM
- GI50 [9]: 1.5 µM
- TGI [9]: 44.7 µM
- GI50 [10]: 0.561 µM
- TGI [10]: 2.06 µM

SMILES: CN1CCN(Cc2ccc(NC(=O)c3cncc(C#Cc4cnc(N)c5cnccc45)c3)cc2C(F)(F)F)CC1
- GI50 [1]: 0.233 µM
- TGI [1]: 4.32 µM
- GI50 [2]: 0.277 µM
- TGI [2]: 0.952 µM
- GI50 [3]: 0.234 µM
- TGI [3]: 7.12 µM
- GI50 [4]: 0.436 µM
- TGI [4]: 6.73 µM
- GI50 [5]: 0.162 µM
- TGI [5]: 4.39 µM
- GI50 [6]: 0.108 µM
- TGI [6]: 0.283 µM
- GI50 [7]: 0.335 µM
- TGI [7]: 8.71 µM
- GI50 [8]: 0.157 µM
- TGI [8]: 0.628 µM
- GI50 [9]: 0.129 µM
- TGI [9]: 7.52 µM
- GI50 [10]: 0.12 µM
- TGI [10]: 0.363 µM

SMILES: COc1ccc(OC)c(/C=C/c2nc(SCc3ccccc3)n(-c3ccc(Cl)cc3)n2)c1
- GI50 [1]: 9.57 µM
- TGI [1]: > 100 µM
- GI50 [2]: 4.75 µM
- TGI [2]: 21.9 µM
- GI50 [3]: 8.24 µM
- TGI [3]: > 100 µM
- GI50 [4]: 30.6 µM
- TGI [4]: > 100 µM
- GI50 [5]: > 100 µM
- TGI [5]: > 100 µM
- GI50 [6]: 6.38 µM
- TGI [6]: > 100 µM
- GI50 [7]: 4.11 µM
- TGI [7]: > 100 µM
- GI50 [8]: 4.25 µM
- TGI [8]: > 100 µM
- GI50 [9]: 67 µM
- TGI [9]: > 100 µM
- GI50 [10]: 4.54 µM
- TGI [10]: 88.4 µM

SMILES: O=c1cc(-c2ccccc2)[nH]c2cc(Cl)ccc12
- TGI [1]: 13.3 µM
- TGI [2]: 19.6 µM
- TGI [3]: 4.76 µM
- TGI [4]: > 100 µM
- TGI [5]: > 100 µM
- TGI [6]: > 100 µM
- TGI [7]: 11.4 µM
- TGI [8]: 1.99 µM
- TGI [9]: > 100 µM
- TGI [10]: > 100 µM

SMILES: Cn1c2ccccc2c2c(=O)n(CCCC(=O)OC(=NC3CCCCC3)NC3CCCCC3)c3c(-c4ccccc4)nnn3c21
- GI50 [1]: > 100 µM
- TGI [1]: > 100 µM
- GI50 [2]: > 100 µM
- TGI [2]: > 100 µM
- GI50 [3]: > 100 µM
- TGI [3]: > 100 µM
- GI50 [4]: > 100 µM
- TGI [4]: > 100 µM
- GI50 [5]: > 100 µM
- TGI [5]: > 100 µM
- GI50 [6]: > 100 µM
- TGI [6]: > 100 µM
- GI50 [7]: > 100 µM
- TGI [7]: > 100 µM
- GI50 [8]: 38.4 µM
- TGI [8]: > 100 µM
- GI50 [9]: 38 µM
- TGI [9]: > 100 µM
- GI50 [10]: 65.8 µM
- TGI [10]: > 100 µM
